Measured values as given in PubChem BioAssay AID330 (DTP/NCI, 2004).
Several values for one entry are separate records, joined by “and”; a condition that tells them apart may be missing. Equal values may be shown once. Toxic doses and inconclusive results are not listed. How the source made its calls: active means survival T/C of 150% or more; inactive means T/C below 125% in these data.

Tested on: P388 leukemia ip, CD2F1 mice, survival T/C
Assay: NCI In Vivo Anticancer Drug Screen. Data for tumor model P388 Leukemia (intraperitoneal) in CD2F1 (CDF1) mice
Details: endpoint: median survival time, higher = longer survival
How it was run: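 Mice carrying the transplanted tumor received test compound or vehicle. Survival was recorded in each group, and the value is the treated-group measurement divided by that of the vehicle-treated control group.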

[1] = dose: 50.0 mg/kg/injection, schedule: Q01DX009 (ip), vehicle: saline with Tween-80
[2] = dose: 100.0 mg/kg/injection, schedule: Q01DX009 (ip), vehicle: saline with Tween-80
[3] = dose: 200.0 mg/kg/injection, schedule: Q01DX009 (ip), vehicle: saline with Tween-80
[4] = dose: 25.0 mg/kg/injection, schedule: Q01DX009 (ip), vehicle: saline with Tween-80
[5] = dose: 25.0 mg/kg/injection, schedule: Q01DX005 (ip), vehicle: Klucel (hydroxypropylcellulose) (HPC)
[6] = dose: 50.0 mg/kg/injection, schedule: Q01DX005 (ip), vehicle: Klucel (hydroxypropylcellulose) (HPC)
[7] = dose: 100.0 mg/kg/injection, schedule: Q01DX005 (ip), vehicle: Klucel (hydroxypropylcellulose) (HPC)
[8] = dose: 200.0 mg/kg/injection, schedule: Q01DX005 (ip), vehicle: Klucel (hydroxypropylcellulose) (HPC)
[9] = dose: 50.0 mg/kg/injection, schedule: Q01DX009 (ip), vehicle: saline
[10] = dose: 100.0 mg/kg/injection, schedule: Q01DX009 (ip), vehicle: saline
[11] = dose: 200.0 mg/kg/injection, schedule: Q01DX009 (ip), vehicle: saline
[12] = dose: 60.0 mg/kg/injection, schedule: Q01DX005 (ip), vehicle: saline with Tween-80
[13] = dose: 120.0 mg/kg/injection, schedule: Q01DX005 (ip), vehicle: saline with Tween-80
[14] = dose: 240.0 mg/kg/injection, schedule: Q01DX005 (ip), vehicle: saline with Tween-80
[15] = dose: 50.0 mg/kg/injection, schedule: Q01DX009 (ip), vehicle: Klucel (hydroxypropylcellulose) (HPC)
[16] = dose: 100.0 mg/kg/injection, schedule: Q01DX009 (ip), vehicle: Klucel (hydroxypropylcellulose) (HPC)
[17] = dose: 200.0 mg/kg/injection, schedule: Q01DX009 (ip), vehicle: Klucel (hydroxypropylcellulose) (HPC)

Measured: T/C

Nc1nc(N)c(N=Nc2ccccc2)c(=O)[nH]1
inactive: [1] 100 % of control | dose: 50.0 mg/kg/injection, schedule: Q04DX003 (ip), vehicle: saline with Tween-80 86 % of control | [2] 90 % of control | dose: 100.0 mg/kg/injection, schedule: Q04DX003 (ip), vehicle: saline with Tween-80 95 % of control | [3] 115 % of control | dose: 200.0 mg/kg/injection, schedule: Q04DX003 (ip), vehicle: saline with Tween-80 95 % of control

CCCOC(=O)/C=C(\Cl)C(=O)OCCC
inactive: dose: 6.25 mg/kg/injection, schedule: Q01DX009 (ip), vehicle: saline with Tween-80 104 % of control | dose: 12.5 mg/kg/injection, schedule: Q01DX009 (ip), vehicle: saline with Tween-80 109 % of control | [4] 113 % of control

O=C(/C=C/C=C/c1ccccc1)CCc1ccccc1
inactive: [5] 95 % of control | [6] 101 % of control | [7] 100 % of control | [8] 92 % of control

Cc1ccc(O)c(C(=NCCN=C(c2ccccc2)c2cc(C)ccc2O)c2ccccc2)c1.[Cu]
inactive: [5] 98 % of control | [6] 98 % of control | [7] 96 % of control | [8] 90 % of control

O=c1c(Cl)c(Cl)c(=O)c2sc3cc(Cl)ccc3[nH]c1=2
inactive: [9] 98 % of control | [10] 102 % of control | [11] 101 % of control

CCOc1ccc(C(C)c2cc3c(cc2O)OCO3)cc1 (stereo not drawn)
inactive: [12] 105 % of control | [13] 104 % of control | [14] 109 % of control

c1cc2nc(-c3ccc4oc(C5=NCCN5)cc4c3)[nH]c2cc1C1=NCCN1
inactive: dose: 12.5 mg/kg/injection, schedule: Q01DX005 (ip), vehicle: saline 98 % of control | dose: 25.0 mg/kg/injection, schedule: Q01DX005 (ip), vehicle: saline 113 % of control | dose: 50.0 mg/kg/injection, schedule: Q01DX005 (ip), vehicle: saline 113 % of control and 118 % of control

c1ccc2c(c1)c1c(c3ccccc32)CN2CCCC2C1 (stereo not drawn)
inactive: [6] 105 % of control | [7] 101 % of control | [8] 110 % of control

Nc1ccc(-c2cc(O)ccc2N)cc1
inactive: [4] 100 % of control | [1] 117 % of control | [2] 110 % of control

CC12CC3CC(C)(C1)CC(C/C=N/NC(N)=O)(C3)C2
inactive: [15] 102 % of control | [16] 92 % of control | [17] 99 % of control

CC(C)=NO
inactive: [9] 117 % of control | [10] 100 % of control | [11] 101 % of control

CCn1cc(C(=O)O)c(=O)c2ccc(C)[n+](CCSC(=N)N)c21
inactive: dose: 100.0 mg/kg/injection, schedule: Q04DX002 (ip), vehicle: saline with Tween-80 104 % of control | dose: 200.0 mg/kg/injection, schedule: Q04DX002 (ip), vehicle: saline with Tween-80 99 % of control | dose: 400.0 mg/kg/injection, schedule: Q04DX002 (ip), vehicle: saline with Tween-80 100 % of control

COc1ccc2c(c1)/C(=C/CCN(C)C)c1ccccc1S2
inactive: dose: 12.5 mg/kg/injection, schedule: Q04DX003 (ip), vehicle: saline 113 % of control | dose: 25.0 mg/kg/injection, schedule: Q04DX003 (ip), vehicle: saline 109 % of control

CCOC(=O)C[C@@]1(C)C(=O)O[C@H](c2ccccc2)N1C(=O)c1ccccc1
inactive: [12] 106 % of control | [13] 100 % of control | [14] 94 % of control

COC(=O)C1=CO[C@@H](OC2OC(CO)C(O)C(O)C2O)[C@H]2[C@@H](C)[C@@H](O)[C@@H](O)[C@@H]12 (stereo partly drawn)
inactive: dose: 5.25 mg/kg/injection, schedule: Q01DX005 (ip), vehicle: Klucel (hydroxypropylcellulose) (HPC) 100 % of control | dose: 10.5 mg/kg/injection, schedule: Q01DX005 (ip), vehicle: Klucel (hydroxypropylcellulose) (HPC) 95 % of control | dose: 21.0 mg/kg/injection, schedule: Q01DX005 (ip), vehicle: Klucel (hydroxypropylcellulose) (HPC) 104 % of control | dose: 42.0 mg/kg/injection, schedule: Q01DX005 (ip), vehicle: Klucel (hydroxypropylcellulose) (HPC) 99 % of control

NC(=S)n1nc(-c2ccccc2)c(N=Nc2ccccc2C(F)(F)F)c1-c1ccccc1
inactive: dose: 50.0 mg/kg/injection, schedule: Q01DX005 (ip), vehicle: saline with Tween-80 102 % of control | dose: 100.0 mg/kg/injection, schedule: Q01DX005 (ip), vehicle: saline with Tween-80 93 % of control | dose: 200.0 mg/kg/injection, schedule: Q01DX005 (ip), vehicle: saline with Tween-80 88 % of control

O=C(O)C(CSC(c1ccccc1)(c1ccccc1)c1ccccc1)NC(c1ccccc1)(c1ccccc1)c1ccccc1 (stereo not drawn)
inactive: dose: 12.5 mg/kg/injection, schedule: Q01DX009 (ip), vehicle: other 93 % of control | dose: 25.0 mg/kg/injection, schedule: Q01DX009 (ip), vehicle: other 94 % of control | dose: 50.0 mg/kg/injection, schedule: Q01DX009 (ip), vehicle: other 93 % of control | dose: 100.0 mg/kg/injection, schedule: Q01DX009 (ip), vehicle: other 98 % of control

C[C@]12C=CC(=O)C=C1CC[C@@H]1[C@@H]2[C@@H](O)C[C@@]2(C)[C@H]1CC[C@]2(O)C(=O)CO
inactive: [6] 106 % of control | [7] 100 % of control | [8] 91 % of control | dose: 400.0 mg/kg/injection, schedule: Q01DX005 (ip), vehicle: Klucel (hydroxypropylcellulose) (HPC) 105 % of control

CCOC(=O)c1ccc(NC(CCSc2ccccc2)=NC(C)(C)C)cc1
inactive: [1] 103 % of control | [2] 107 % of control | [3] 94 % of control

CN(CC#N)Cc1ccccc1
inactive: dose: 7.5 mg/kg/injection, schedule: Q01DX005 (ip), vehicle: saline with Tween-80 95 % of control | dose: 15.0 mg/kg/injection, schedule: Q01DX005 (ip), vehicle: saline with Tween-80 96 % of control | dose: 30.0 mg/kg/injection, schedule: Q01DX005 (ip), vehicle: saline with Tween-80 97 % of control | [12] 103 % of control

Clc1ccc2[nH]c3ccc(Cl)cc3c2c1
inactive: [6] 104 % of control | [7] 113 % of control | [8] 113 % of control

CC(C)c1ccccc1[S+]1OC(C)(C)c2ccccc21 (stereo not drawn)
inactive: [15] 107 % of control | [16] 103 % of control | [17] 95 % of control

Cc1cc2c(cc1C)C(=O)C(CN1CCCCC1)CO2 (stereo not drawn)
inactive: dose: 100.0 mg/kg/injection, schedule: Q01DX001 (ip), vehicle: saline 107 % of control | dose: 200.0 mg/kg/injection, schedule: Q01DX001 (ip), vehicle: saline 104 % of control

NOCc1cccc(CON)c1
inactive: [1] 91 % of control

COc1cc(C2c3cc4c(cc3OC(C)(OC)C2C(C)=O)OCO4)cc(OC)c1O (stereo not drawn)
inactive: [12] 91 % of control | [13] 95 % of control | [14] 97 % of control

[CH3][Ge]([O][Ge]([CH3])([c]1ccccc1)[c]1ccccc1)([c]1ccccc1)[c]1ccccc1
inactive: [9] 102 % of control | [10] 93 % of control | [11] 92 % of control
